{"source": "patent US20070049564A1", "about": "(Wyeth, priority 2005, published 2007)", "key": {"E. coli GC 2231": {"test_system": "E. coli GC 2231", "assay": "MIC, broth microdilution", "settings": "Escherichia coli"}, "E. coli GC 2232": {"test_system": "E. coli GC 2232", "assay": "MIC, broth microdilution", "settings": "Escherichia coli"}, "E. coli GC 2234": {"test_system": "E. coli GC 2234", "assay": "MIC, broth microdilution", "settings": "Escherichia coli"}, "E. coli GC 2272": {"test_system": "E. coli GC 2272", "assay": "MIC, broth microdilution", "settings": "Escherichia coli"}, "E. coli GC 4559": {"test_system": "E. coli GC 4559", "assay": "MIC, broth microdilution", "settings": "Escherichia coli", "description": "(§1) Antimicrobial susceptibility testing. The in vitro activities of the antibiotics are determined by the broth microdilution method as recommended by the National Committee for Clinical Laboratory Standards (NCCLS) (1). Mueller-Hinton II broth (MHBII)(BBL Cockeysville, Md.) is the medium employed in the testing procedures. Microtiter plates containing serial dilutions of each antimicrobial agent are inoculated with each organism to yield the appropriate density (10^5 CFU/ml) in a 100 μl final volume. The plates are incubated for 18-22 hours at 35° C. in ambient air.\n(§2) Representative compounds were first incubated in mouse serum for an hour prior to the in vitro testing against a panel of selected gram-positive and gram-negative bacteria strains. All compounds were also pre-incubated in water for an hour prior to testing as control. Representative compounds of Formula I were incubated in human serum prior to MIC determination."}, "E. coli GC 4560": {"test_system": "E. coli GC 4560", "assay": "MIC, broth microdilution", "settings": "Escherichia coli", "description": "as §1, §2"}, "E. coli GC 6465": {"test_system": "E. coli GC 6465", "assay": "MIC, broth microdilution", "settings": "Escherichia coli"}, "E. coli GC 2203": {"test_system": "E. coli GC 2203", "assay": "MIC, broth microdilution", "settings": "Escherichia coli"}, "P. aeruginosa GC 2214": {"test_system": "P. aeruginosa GC 2214", "assay": "MIC, broth microdilution", "settings": "Pseudomonas aeruginosa"}, "S. aureus GC 1131": {"test_system": "S. aureus GC 1131", "assay": "MIC, broth microdilution", "settings": "Staphylococcus aureus", "description": "as §1\n(§3) Representative compounds were first incubated in mouse serum for an hour prior to the in vitro testing against a panel of selected gram-positive and gram-negative bacteria strains. All compounds were also pre-incubated in water for an hour prior to testing as control."}, "S. aureus GC 6466": {"test_system": "S. aureus GC 6466", "assay": "MIC, broth microdilution", "settings": "Staphylococcus aureus"}, "S. aureus GC 6467": {"test_system": "S. aureus GC 6467", "assay": "MIC, broth microdilution", "settings": "Staphylococcus aureus", "description": "as §1, §3"}, "S. aureus GC 4536": {"test_system": "S. aureus GC 4536", "assay": "MIC, broth microdilution", "settings": "Staphylococcus aureus"}, "S. aureus GC 2216": {"test_system": "S. aureus GC 2216", "assay": "MIC, broth microdilution", "settings": "Staphylococcus aureus"}, "S. epidermidis GC 4935": {"test_system": "S. epidermidis GC 4935", "assay": "MIC, broth microdilution", "settings": "Staphylococcus epidermidis", "description": "as §1, §2"}, "E. faecalis GC 2267": {"test_system": "E. faecalis GC 2267", "assay": "MIC, broth microdilution", "settings": "Enterococcus faecalis"}, "E. faecalis GC 2242": {"test_system": "E. faecalis GC 2242", "assay": "MIC, broth microdilution", "settings": "Enterococcus faecalis"}, "S. pneumoniae* GC 4465": {"test_system": "S. pneumoniae* GC 4465", "assay": "MIC, broth microdilution", "settings": "Streptococcus pneumoniae"}, "S. pneumoniae+ GC 4465": {"test_system": "S. pneumoniae+ GC 4465", "assay": "MIC, broth microdilution", "settings": "Streptococcus pneumoniae"}, "Staph. aureus Smith": {"test_system": "Staph. aureus Smith", "assay": "In vivo activity (oral, iv; ED50) against Staph. aureus Smith in mice", "description": "Representative examples of compounds of Formula I were tested for the oral efficacy using S. aureus Smith in mice."}, "[1]": {"settings": "read-out: MINIMAL INHIBITORY CONCENTRATION MIC, pre-incubated in Mouse Serum"}, "[2]": {"settings": "read-out: MINIMAL INHIBITORY CONCENTRATION MIC, pre-incubated in Water"}}, "note": "Like-named read-outs stand apart in the source and are kept apart here.", "data": [{"compound": "CCCN(CC(=O)Nc1cc(N(C)C)c2c(c1O)C(=O)C1=C(O)[C@]3(O)C(=O)C(C(N)=O)=C(O)[C@@H](N(C)C)[C@@H]3C[C@@H]1C2)C(=O)OCOC(=O)c1ccsc1", "note": "[Example 27, ({[(2-{[(5aR,6aS,7S,10aS)-9-(aminocarbonyl)-4,7-bis(dimethylamino)-1,8,10a,11-tetrahydroxy-10,12-dioxo-5,5a,6,6a,7,10,10a,12-octahydrotetracen-2-yl]amino}-2-oxoethyl)(propyl)amino]carbonyl}oxy)methyl thiophene-3-carboxylate]", "values": [{"measurement": "MIC", "setting": "E. coli GC 2231; GC2231, read-out: MINIMAL INHIBITORY CONCENTRATION MIC, pre-incubated in Mouse Serum", "value": 1, "unit": "µg/mL"}, {"measurement": "MIC", "setting": "E. coli GC 2231; GC2231, read-out: MINIMAL INHIBITORY CONCENTRATION MIC, pre-incubated in Water", "value": "> 64", "unit": "µg/mL"}, {"measurement": "MIC", "setting": "E. coli GC 2232; GC2232, read-out: MINIMAL INHIBITORY CONCENTRATION MIC, pre-incubated in Mouse Serum", "value": 0.5, "unit": "µg/mL"}, {"measurement": "MIC", "setting": "E. coli GC 2232; GC2232, read-out: MINIMAL INHIBITORY CONCENTRATION MIC, pre-incubated in Water", "value": 64, "unit": "µg/mL"}, {"measurement": "MIC", "setting": "E. coli GC 2234; GC2234, read-out: MINIMAL INHIBITORY CONCENTRATION MIC, pre-incubated in Mouse Serum", "value": 0.5, "unit": "µg/mL"}, {"measurement": "MIC", "setting": "E. coli GC 2234; GC2234, read-out: MINIMAL INHIBITORY CONCENTRATION MIC, pre-incubated in Water", "value": 64, "unit": "µg/mL"}, {"measurement": "MIC", "setting": "E. coli GC 2272; GC2272, read-out: MINIMAL INHIBITORY CONCENTRATION MIC, pre-incubated in Mouse Serum", "value": 0.5, "unit": "µg/mL"}, {"measurement": "MIC", "setting": "E. coli GC 2272; GC2272, read-out: MINIMAL INHIBITORY CONCENTRATION MIC, pre-incubated in Water", "value": 32, "unit": "µg/mL"}, {"measurement": "MIC", "setting": "E. coli GC 4559; GC4559, read-out: MINIMAL INHIBITORY CONCENTRATION MIC, pre-incubated in Mouse Serum", "value": 0.5, "unit": "µg/mL"}, {"measurement": "MIC", "setting": "E. coli GC 4559; GC4559, read-out: MINIMAL INHIBITORY CONCENTRATION MIC, pre-incubated in Water", "value": "> 64", "unit": "µg/mL"}, {"measurement": "MIC", "setting": "E. coli GC 4560; GC4560, read-out: MINIMAL INHIBITORY CONCENTRATION MIC, pre-incubated in Mouse Serum", "value": 0.25, "unit": "µg/mL"}, {"measurement": "MIC", "setting": "E. coli GC 4560; GC4560, read-out: MINIMAL INHIBITORY CONCENTRATION MIC, pre-incubated in Water", "value": 1, "unit": "µg/mL"}, {"measurement": "MIC", "setting": "E. coli GC 6465; GC6465, read-out: MINIMAL INHIBITORY CONCENTRATION MIC, pre-incubated in Mouse Serum", "value": 4, "unit": "µg/mL"}, {"measurement": "MIC", "setting": "E. coli GC 6465; GC6465, read-out: MINIMAL INHIBITORY CONCENTRATION MIC, pre-incubated in Water", "value": "> 64", "unit": "µg/mL"}, {"measurement": "MIC", "setting": "E. coli GC 2203; GC2203, read-out: MINIMAL INHIBITORY CONCENTRATION MIC, pre-incubated in Mouse Serum", "value": 0.5, "unit": "µg/mL"}, {"measurement": "MIC", "setting": "E. coli GC 2203; GC2203, read-out: MINIMAL INHIBITORY CONCENTRATION MIC, pre-incubated in Water", "value": "> 64", "unit": "µg/mL"}, {"measurement": "MIC", "setting": "P. aeruginosa GC 2214; GC2214, read-out: MINIMAL INHIBITORY CONCENTRATION MIC, pre-incubated in Mouse Serum", "value": 8, "unit": "µg/mL"}, {"measurement": "MIC", "setting": "P. aeruginosa GC 2214; GC2214, read-out: MINIMAL INHIBITORY CONCENTRATION MIC, pre-incubated in Water", "value": "> 64", "unit": "µg/mL"}, {"measurement": "MIC", "setting": "S. aureus GC 1131; GC1131, read-out: MINIMAL INHIBITORY CONCENTRATION MIC, pre-incubated in Mouse Serum", "value": 0.12, "unit": "µg/mL"}, {"measurement": "MIC", "setting": "S. aureus GC 1131; GC1131, read-out: MINIMAL INHIBITORY CONCENTRATION MIC, pre-incubated in Water", "value": 0.25, "unit": "µg/mL"}, {"measurement": "MIC", "setting": "S. aureus GC 6466; GC6466, read-out: MINIMAL INHIBITORY CONCENTRATION MIC, pre-incubated in Mouse Serum", "value": 0.12, "unit": "µg/mL"}, {"measurement": "MIC", "setting": "S. aureus GC 6466; GC6466, read-out: MINIMAL INHIBITORY CONCENTRATION MIC, pre-incubated in Water", "value": 0.25, "unit": "µg/mL"}, {"measurement": "MIC", "setting": "S. aureus GC 6467; GC6467, read-out: MINIMAL INHIBITORY CONCENTRATION MIC, pre-incubated in Mouse Serum", "value": 2, "unit": "µg/mL"}, {"measurement": "MIC", "setting": "S. aureus GC 6467; GC6467, read-out: MINIMAL INHIBITORY CONCENTRATION MIC, pre-incubated in Water", "value": 2, "unit": "µg/mL"}, {"measurement": "MIC", "setting": "S. aureus GC 4536; GC4536, read-out: MINIMAL INHIBITORY CONCENTRATION MIC, pre-incubated in Mouse Serum", "value": 0.12, "unit": "µg/mL"}, {"measurement": "MIC", "setting": "S. aureus GC 4536; GC4536, read-out: MINIMAL INHIBITORY CONCENTRATION MIC, pre-incubated in Water", "value": 0.12, "unit": "µg/mL"}, {"measurement": "MIC", "setting": "S. aureus GC 2216; GC2216, read-out: MINIMAL INHIBITORY CONCENTRATION MIC, pre-incubated in Mouse Serum", "value": 0.25, "unit": "µg/mL"}, {"measurement": "MIC", "setting": "S. aureus GC 2216; GC2216, read-out: MINIMAL INHIBITORY CONCENTRATION MIC, pre-incubated in Water", "value": 0.25, "unit": "µg/mL"}, {"measurement": "MIC", "setting": "S. epidermidis GC 4935; GC4935, read-out: MINIMAL INHIBITORY CONCENTRATION MIC, pre-incubated in Mouse Serum", "value": 0.25, "unit": "µg/mL"}, {"measurement": "MIC", "setting": "S. epidermidis GC 4935; GC4935, read-out: MINIMAL INHIBITORY CONCENTRATION MIC, pre-incubated in Water", "value": 1, "unit": "µg/mL"}, {"measurement": "MIC", "setting": "E. faecalis GC 2267; GC2267, read-out: MINIMAL INHIBITORY CONCENTRATION MIC, pre-incubated in Mouse Serum", "value": 1, "unit": "µg/mL"}, {"measurement": "MIC", "setting": "E. faecalis GC 2267; GC2267, read-out: MINIMAL INHIBITORY CONCENTRATION MIC, pre-incubated in Water", "value": 2, "unit": "µg/mL"}, {"measurement": "MIC", "setting": "E. faecalis GC 2242; GC2242, read-out: MINIMAL INHIBITORY CONCENTRATION MIC, pre-incubated in Mouse Serum", "value": 0.5, "unit": "µg/mL"}, {"measurement": "MIC", "setting": "E. faecalis GC 2242; GC2242, read-out: MINIMAL INHIBITORY CONCENTRATION MIC, pre-incubated in Water", "value": 0.5, "unit": "µg/mL"}, {"measurement": "MIC", "setting": "S. pneumoniae* GC 4465; [1]", "value": "< 0.06", "unit": "µg/mL"}, {"measurement": "MIC", "setting": "S. pneumoniae* GC 4465; [2]", "value": "< 0.06", "unit": "µg/mL"}, {"measurement": "MIC", "setting": "S. pneumoniae+ GC 4465; [1]", "value": 1, "unit": "µg/mL"}, {"measurement": "MIC", "setting": "S. pneumoniae+ GC 4465; [2]", "value": 2, "unit": "µg/mL"}, {"measurement": "ED50", "setting": "Staph. aureus Smith; Staphylococcus aureus, in Mus musculus, iv, read-out: ED50 SIV (Staph aureus Smith)", "value": 0.44, "unit": "mg/kg"}, {"measurement": "ED50", "setting": "Staph. aureus Smith; Staphylococcus aureus, in Mus musculus, po, read-out: ED50 SOD (Staph aureus Smith)", "value": 3.9, "unit": "mg/kg"}, {"measurement": "ED50", "setting": "Staph. aureus Smith; Staphylococcus aureus, in Mus musculus, po, read-out: ED50 Staph Smith SOD", "value": 3.9, "unit": "mg/kg"}, {"measurement": "ED50", "setting": "Staph. aureus Smith; iv, read-out: ED50 Staph Smith SIV", "value": 0.44, "unit": "mg/kg"}]}]}
